Measured values taken from patent publication EP4541815A1, “ANTIBODY AGAINST HEPATITIS B VIRUS, PREPARATION THEREOF AND USE THEREOF” (priority 2022, dated 2023).

System: HBV D genotype
Test: Antiviral activity in HBV-infected liver-humanized chimeric hFRG mouse model, plasma HBV DNA by qPCR
Type: in vivo
Conditions: hFRG mice
Description: To investigate the therapeutic efficacy of afuco-A14 GA LS against established HBV infection, the efficacy of afuco-A14 GA LS administered alone and in combination with entecavir, was evaluated in a liver-humanized chimeric hFRG (Fah^-/- Rag2^-/- /IL2rg^-/-) mouse model. Entecavir is a hepatitis B virus reverse transcriptase inhibitor that treats hepatitis B by inhibiting viral replication. The disadvantage of entecavir is the rebound of viral replication upon discontinuation of treatment.
A control group (saline), an afuco-A14 GA LS monotherapy group (10 mg/kg), an entecavir (ETV) monotherapy group (ETV, 0.1 mg/kg), and a combination therapy group of afuco-A14 GA LS (10 mg/kg) and entecavir (0.1 mg/kg) were set up in the experiment, respectively. Mice were administered (afuco-A14 GALS was administered subcutaneously and ETV was administered orally) starting on day 28 (D28) post HBV infection (HBV D genotype, 2 × 10^9 GE/mouse). Thereafter, afuco-A14 GA LS was administered subcutaneously once a week (D35, D42, D49, D56, D63, and D70), while ETV was administered once a day until D70. The observation period continued after discontinuation until D91.
Plasma from experimental mice was collected by venous blood sampling, and then qPCR was used to quantitatively detect the level of HBV DNA in the plasma of the mice. […]

C=C1[C@H](CO)[C@@H](O)C[C@@H]1n1cnc2c(=O)[nH]c(N)nc21 [ETV, entecavir] was tested, and the “reduction of mean viral titre at the end of the study (D91) compared to the starting point of treatment (D28)” value (21 days post-discontinuation, afuco-A14 GA LS 10 mg/kg s.c., ETV 0.1 mg/kg oral) was 7.15 fold and the “decrease of viral DNA levels at the final dose (D70)” value (treatment D28 to D70, afuco-A14 GA LS 10 mg/kg s.c. once a week, ETV 0.1 mg/kg oral once a day, compared to control group (saline)) was about 436 fold.
